# Reference: patent US11389415B2, “Methods of regulating cannabinoid receptor activity-related disorders and diseases” (The United States of America as represented by the …, priority 2012, dated 2022)
# “Also recorded” adds a separate entry of the source.
# Assays:
# CYP2D6 = biological target: T1, CYP2D6 (Homo sapiens, UniProt P10635); experiment: CYP inhibition in human liver microsomes, CYP2D6; type: in vitro ADME; conditions: 10 μM, 20 minutes, 37° C.
# T1 construct: from tissue; host or cells: human liver microsomes
# Procedure: Incubations containing known CYP inhibitors were also included as positive controls. Formation of the model substrate metabolites was measured by LC-MS/MS and compared to control incubations (incubation of substrates with microsomes and cofactors, no test articles or inhibitors). CYP activity in presence of test compound (MNF) that was less than 70% of control was considered significant. MNF (10 μM) inhibited CYP2D6 and CYP3A4 to less than 70% of the control. Further, the primary metabolite was determined to be O-demethylated-MNF. These studies indicate that MNF alters the metabolism of other drugs or endogenous compounds that are substrates for CYP2D6 and/or CYP3A4 isoforms, when present in the plasma or liver at 10 μM or higher.
# rat C6 glioma xenograft = experiment: C6 tumor xenograft in mice, tumor growth; type: in vivo, mouse
# Procedure: C6 tumor xenograft in mice. In order to assess the ability of MNF to induce regression of tumor growth in vivo, rat C6 glioma cells were trypsin-collected at confluency and were used to generate tumor xenografts. Athymic female nude mice (SWISS nu+/nu+) were obtained from Charles Rivers (L'Arbresle, France) and maintained under pathogen-free conditions with a 12 hours light/12 hours dark cycle. Animals were fed ad libitum with normal chow (supplier). Athymic nude mice were inoculated subcutaneously with […] containing 0.5×10^6 C6 glioma cells in the left flank and then were randomly divided into two groups of 10 animals each. Starting 3 days after cell inoculation, mice received daily intraperitoneal injection (10 μl·g-1 body weight) of vehicle or MNF (2 mg·kg-1) in 100 μM ascorbic acid in saline (vehicle) five days a week for 19 days. Animal survival was monitored daily, and tumor size was determined with the use of a caliper to measure the length (a) and width (b) and estimated as 4/3π×rl2×r2, where rl is the smaller and r 2 the larger radius. […] The mice were euthanized by cervical […], and tumor masses were removed, weighed and washed with cold PBS before being snap-frozen in liquid nitrogen. A second set of studies with 8-9 animals in both groups was repeated.
# T1 sequence (P10635 whole entry): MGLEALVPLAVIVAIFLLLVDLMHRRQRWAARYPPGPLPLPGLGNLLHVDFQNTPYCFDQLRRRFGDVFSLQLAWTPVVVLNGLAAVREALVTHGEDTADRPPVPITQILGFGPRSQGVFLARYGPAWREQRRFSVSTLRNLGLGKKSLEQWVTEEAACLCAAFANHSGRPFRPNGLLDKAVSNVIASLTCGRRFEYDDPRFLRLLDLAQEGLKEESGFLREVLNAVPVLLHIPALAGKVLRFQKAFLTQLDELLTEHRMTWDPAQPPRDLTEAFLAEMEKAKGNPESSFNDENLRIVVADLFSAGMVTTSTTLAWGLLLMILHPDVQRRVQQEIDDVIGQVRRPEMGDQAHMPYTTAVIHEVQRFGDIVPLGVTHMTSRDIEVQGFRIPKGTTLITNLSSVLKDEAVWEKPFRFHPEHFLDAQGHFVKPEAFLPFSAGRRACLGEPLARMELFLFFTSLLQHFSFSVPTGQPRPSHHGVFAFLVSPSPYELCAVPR
compound,measurement,setting,value
"COc1ccc(C[C@@H](C)NC[C@H](O)c2cc(O)cc(O)c2)c2ccccc12 [(R,R′)-MNF, (R,R′)-4′-methoxy-1-naphthylfenoterol]",CYP2D6 activity in presence of test compound,CYP2D6,less than 70 % of the control
same,"average AUC±SEM (tumor volume over time, FIG. 19B)","rat C6 glioma xenograft; C6 tumor-bearing female nude mice, 2 mg/kg, five days a week for 19 days, n=19 (vehicle 5450±518)",3217±265
same,tumor volume compared with vehicle-treated group,"rat C6 glioma xenograft; C6 xenograft in nude mice, 2 mg/kg intraperitoneal",Significant reduction in mean tumor volumes; also recorded: Significant reduction in tumor volume
